Reference: paper PMC11882969 (Nature Communications, 2025)
Several values for one entry are separate records, joined by “and”; a condition that tells them apart may be missing. Identical values can stand only once. Like-named read-outs stand apart in the source and are kept apart here.

Biological target: hCB1 (Homo sapiens, UniProt P21554)
Test: bioSensAll ebBRET signaling profiling, hCB1
Assay type: cell-based
Design: host or cells: HEK293SL cells, transient PEI transfection
Conditions: for RE, relative efficacy: vs CP-55,940; for EC50: read-out: EC50 [95% CI]; for Emax: normalized to CP-55,940

Chain of hCB1 (P21554 whole entry): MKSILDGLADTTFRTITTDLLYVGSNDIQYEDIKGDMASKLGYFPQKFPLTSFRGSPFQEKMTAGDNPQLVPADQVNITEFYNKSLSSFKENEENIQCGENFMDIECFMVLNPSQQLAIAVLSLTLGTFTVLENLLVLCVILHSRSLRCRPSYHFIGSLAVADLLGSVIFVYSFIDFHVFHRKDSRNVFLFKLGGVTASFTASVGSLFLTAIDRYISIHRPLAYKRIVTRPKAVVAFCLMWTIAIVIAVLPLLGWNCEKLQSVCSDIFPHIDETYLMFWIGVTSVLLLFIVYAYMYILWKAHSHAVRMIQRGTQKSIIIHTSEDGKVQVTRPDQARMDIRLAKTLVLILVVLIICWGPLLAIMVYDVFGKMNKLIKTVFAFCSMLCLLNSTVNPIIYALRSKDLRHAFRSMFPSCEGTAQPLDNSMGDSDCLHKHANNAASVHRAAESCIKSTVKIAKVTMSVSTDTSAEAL

Q: What does the source list for `COC(=O)C(C)(NC(=O)c1cc(C)n(-c2cccc(C(F)(F)F)c2)n1)c1cccs1` (stereo not shown) [‘4042]?
A: Gq hCB1 (Log [Compound] (M) -7.14267): 1043; Gs hCB1 (Log [Compound] (M) -7.14267): 7002; Gz hCB1 (Log [Compound] (M) -7.14267): 98.2797 and 100.101 and 88.7145; Barr2+GRK2 hCB1 (Log [Compound] (M) -7.55284): 52.5063 and 42.0336; G15 hCB1 (Log [Compound] (M) -7.55284): 113.933 and 98.6587; Gi1 hCB1 (Log [Compound] (M) -7.55284): 97.1473 and 109.377 and 98.1802; Gi2 hCB1 (Log [Compound] (M) -7.55284): 110.556 and 82.2578; GoB hCB1 (Log [Compound] (M) -7.55284): 88.4435 and 120.01 and 87.3057; Gq hCB1 (Log [Compound] (M) -7.55284): 1071; Gs hCB1 (Log [Compound] (M) -7.55284): 6586; Gz hCB1 (Log [Compound] (M) -7.55284): 92.0765 and 86.4032 and 85.0169; Barr2+GRK2 hCB1 (Log [Compound] (M) -8): 45.4579 and 41.3741; G15 hCB1 (Log [Compound] (M) -8): 112.381 and 101.184; Gi1 hCB1 (Log [Compound] (M) -8): 95.7115 and 104.367 and 92.5898; Gi2 hCB1 (Log [Compound] (M) -8): 103.223 and 88.1181; GoB hCB1 (Log [Compound] (M) -8): 98.6892 and 112.511 and 89.2869; Gq hCB1 (Log [Compound] (M) -8): 1060; Gs hCB1 (Log [Compound] (M) -8): 6741; Gz hCB1 (Log [Compound] (M) -8): 97.3733 and 99.8321 and 82.6809; Barr2+GRK2 hCB1 (Log [Compound] (M) -8.22186): 47.6346 and 43.8472; G13 hCB1 (Log [Compound] (M) -8.22186): 44.4318 and 47.6121; G15 hCB1 (Log [Compound] (M) -8.22186): 112.142 and 106.076; Gi1 hCB1 (Log [Compound] (M) -8.22186): 104.327 and 106.186 and 100.167; Gi2 hCB1 (Log [Compound] (M) -8.22186): 112.022 and 97.4049; GoB hCB1 (Log [Compound] (M) -8.22186): 115.24 and 97.3514 and 98.8499; Gq hCB1 (Log [Compound] (M) -8.22186): 1073; Gs hCB1 (Log [Compound] (M) -8.22186): 6493; Gz hCB1 (Log [Compound] (M) -8.22186): 122.54 and 109.635 and 78.9413; Barr2+GRK2 hCB1 (Log [Compound] (M) -8.39794): 32.0865 and 32.6356; G15 hCB1 (Log [Compound] (M) -8.39794): 101.826 and 96.5808; Gi1 hCB1 (Log [Compound] (M) -8.39794): 93.4953 and 99.8959 and 97.0977; Gi2 hCB1 (Log [Compound] (M) -8.39794): 102.295 and 80.9389; GoB hCB1 (Log [Compound] (M) -8.39794): 81.1381 and 111.288 and 86.2389; Gq hCB1 (Log [Compound] (M) -8.39794): 1055; Gs hCB1 (Log [Compound] (M) -8.39794): 6872; Gz hCB1 (Log [Compound] (M) -8.39794): 84.7686 and 103.436 and 80.0517; G13 hCB1 (Log [Compound] (M) -8.68787): 39.593 and 30.3572; G15 hCB1 (Log [Compound] (M) -8.68787): 97.8136 and 87.6381; Gi1 hCB1 (Log [Compound] (M) -8.68787): 91.7785 and 78.2511 and 91.448; Gi2 hCB1 (Log [Compound] (M) -8.68787): 95.663 and 73.4469; GoB hCB1 (Log [Compound] (M) -8.68787): 96.3854 and 73.3436 and 84.1561; Gq hCB1 (Log [Compound] (M) -8.68787): 1066; Gs hCB1 (Log [Compound] (M) -8.68787): 6260; Gz hCB1 (Log [Compound] (M) -8.68787): 96.1128 and 114.514 and 58.5255; G13 hCB1 (Log [Compound] (M) -9.15521): 17.7531 and 19.6344; G15 hCB1 (Log [Compound] (M) -9.15521): 67.1744 and 66.4649; Gi1 hCB1 (Log [Compound] (M) -9.15521): 78.7311 and 50.1158 and 63.8224; Gi2 hCB1 (Log [Compound] (M) -9.15521): 65.4704 and 47.7485; GoB hCB1 (Log [Compound] (M) -9.15521): 59.8283 and 42.5561 and 56.6226; Gq hCB1 (Log [Compound] (M) -9.15521): 1117; Gs hCB1 (Log [Compound] (M) -9.15521): 6551; G15 hCB1 (Log [Compound] (M) -9.61989): 31.8785 and 42.2144; Gi2 hCB1 (Log [Compound] (M) -9.61989): 32.2472 and 21.8596; GoB hCB1 (Log [Compound] (M) -9.61989): 29.5611 and 20.1669 and 24.5425; Gq hCB1 (Log [Compound] (M) -9.61989): 1001; Gs hCB1 (Log [Compound] (M) -9.61989): 6299; G15 hCB1 (Log [Compound] (M) -10.0969): 15.3529 and 24.9603; GoB hCB1 (Log [Compound] (M) -10.0969): 15.2383 and 7.632 and 9.061; Gq hCB1 (Log [Compound] (M) -10.0969): 1213; Gs hCB1 (Log [Compound] (M) -10.0969): 6447; Gq hCB1 (Log [Compound] (M) -10.5529): 1076; Gs hCB1 (Log [Compound] (M) -10.5529): 6140; Gq hCB1 (Log [Compound] (M) -11.0177): 1045; Gs hCB1 (Log [Compound] (M) -11.0177): 6569; Gq hCB1 (Log [Compound] (M) -11.4949): 1094; Gs hCB1 (Log [Compound] (M) -11.4949): 6245; Gq hCB1 (Log [Compound] (M) -11.9208): 1111; Gs hCB1 (Log [Compound] (M) -11.9208): 6591; Gq hCB1 (Log [Compound] (M) -12.3979): 1117; Gs hCB1 (Log [Compound] (M) -12.3979): 6511; Gq hCB1 (Log [Compound] (M) -12.8861): 1023; Gs hCB1 (Log [Compound] (M) -12.8861): 6621; pEC50 [95% CI] (hCB1 G13): 8.69 [8.0 – 9.3]; RE, relative efficacy (hCB1 G13): 0.91; RE, relative efficacy (hCB1 G15): 0.74; pEC50 [95% CI] (hCB1 Gi1): 9.32 [9.2 – 9.4]; RE, relative efficacy (hCB1 Gi1): 0.97; pEC50 [95% CI] (hCB1 Gi2): 9.25 [9.0 – 9.5]; RE, relative efficacy (hCB1 Gi2): 1.01; pEC50 [95% CI] (hCB1 GoB): 9.20 [9.1 – 9.3]; RE, relative efficacy (hCB1 GoB): 1.04; RE, relative efficacy (hCB1 Gz): 0.62; RE, relative efficacy (hCB1 ßarr2+GRK2): 0.81; EC50 (hCB1 Barr2 + GRK2): 3600 pM; EC50 (hCB1 G13): 2100 pM; EC50 (hCB1 G15): 370 pM; EC50 (hCB1 GoB): 640 pM; EC50 (hCB1 Gz): 430 pM; Emax (read-out: Emax [95% CI], hCB1 Barr2 + GRK2): 72%; Emax (read-out: Emax [95% CI], hCB1 G13): 64%; Emax (read-out: Emax [95% CI], hCB1 G15): 105%; Emax (read-out: Emax [95% CI], hCB1 Gi2): 101%; Emax (read-out: Emax [95% CI], hCB1 GoB): 103%; Emax (read-out: Emax [95% CI], hCB1 Gz): 97%
